Reference: US4843085A, “Pyridine derivatives, process for production thereof and pharmaceutical compositions useful as anti-arhytmics” (Yamanouchi Pharmaceutical Co., Ltd., priority 1987, dated 1989)
Structures can show the parent of a compound that is named as a salt.

tested on: corneal reflex responses; experiment: Local anesthetic activity (corneal reflex responses); type: in vivo, guinea-pigs (male Hartley strain); details: instilled into the cornea, guinea-pigs
Description: Solutions of the compounds were instilled into the cornea, and the corneal reflex responses were determined.

First: COC(=O)c1c(C)nc(C)c(C(=O)OC)c1-c1cc([N+](=O)[O-])ccc1OCCCCNC[C@H](O)COc1ccccc1.O=C(O)C(=O)O.O=C(O)C(=O)O [Example 1, Dimethyl 4-[2-[4-[[(S)-2-hydroxy-3-phenoxypropyl]amino]butoxy]-5-nitrophenyl]-2,6-dimethylpyridine-3,5dicarboxylate dioxalate]
Second: COC(=O)c1c(C)nc(C)c(C(=O)OC)c1-c1cc([N+](=O)[O-])ccc1OCCCCNC[C@@H](O)COc1ccccc1 [Example 2, Dimethyl 4-[2-[4-[[(R)-2-hydroxy-3-phenoxypropyl]amino]butoxy]-5-nitrophenyl]-2,6-dimethylpyridine-3,5-dicarboxylate oxalate]
The “ED50 (concentration required to inhibit corneal reflex responses by 50%)” value of the first is higher: 0.49% for the first, 0.32% for the second.

`CCN(CC)CC(=O)Nc1c(C)cccc1C` [Lidocaine, reference compound] was tested, and the “ED50 (concentration required to inhibit corneal reflex responses by 50%)” value was 0.82%.
